{"source": "patent US7132286B2", "about": "“Method for neural stem cell differentiation using valproate” (Psychiatric Genomics, Inc., priority 2001, dated 2006)", "format_in_all_cases": "cell-based", "key": {"[1]": {"test_system": "rat stem cells from ventral forebrain i.e. the lateral ganglionic eminence (LGE)", "experiment": "Neuronal differentiation of rat stem cells from ventral forebrain (lateral ganglionic eminence)", "conditions": "data not shown", "procedure": "Isolation of cortical and striatal stem cells. […] The abdomen of the rat was cleaned with 70% ethanol and the uterus was removed quickly and aseptically on the bench top.\nRemoval of meninges is not possible at this age, and no attempt was made to do so. If the dissected tissue was in large enough chunks and settle to the bottom of the tube, no centrifugation was performed. Alternatively, the tube was centrifuged at 1000 rpm for 5 minutes to pellet the tissue. Following centrifugation, the 15 ml tube containing the tissue was sprayed with 70% ethanol and taken into the sterile hood.\nAbout 4–5 ml of the 6 ml of cells suspension was used for plating. […] This culture is designated P0 (passage 0).\nThe cultures were never permitted to reach more than 70% confluency. […] It is not expected that all cells in the culture will round up as there are several cell types in the culture at P0. The pH of the HBSS should be neutral at all times during this incubation."}, "[2]": {"test_system": "glutamate decarboxylase (GAD)", "experiment": "Western blot of GAD 65/67 expression in rat cortical stem cell cultures", "conditions": "0.5 mM valproate", "procedure": "Western blotting. Cells were plated at 1×10^6 cells/100 mm dish in poly-1-ornithine-coated 10 cm dishes and treated as described supra. Denatured proteins were separated on 8% polyacrylamide Tris-Glycine gels (Novex) and transferred to nitrocellulose membranes (BioRad). Membranes were probed with antibodies against rabbit anti-GAD 65/67 (Sigma) at 1:10,000 and HRP-conjugated anti-rabbit (Jackson Immunolabs) at 1:10,000 respective dilutions. Antigen-antibody complexes were visualized using a SuperSignal West Pico Chemiluminescent Kit (Pierce)."}, "[3]": {"test_system": "human striatal stem cells (line 161)", "experiment": "Neuronal differentiation of human striatal stem cells (β tubulin III neurons, total cells)", "conditions": "9 days", "procedure": "Expansion and differentiation of striatal human stem cells. Human stem cells were provided from ReNeuron Inc. (U.K.). Striatum was obtained after 6 to 12 weeks of gestation from routine legal abortion. Cell line was provided by ReNeuron at passage 16. The stem cells were expanded in untreated 25 cm^2 tissue culture flasks (Nunc, USA) in the presence of 20 ng/ml and 10 ng/ml of human recombinant EGF and bFGF respectively, in NSA basal serum-free medium (Euroclone, U.K). Fresh medium and growth factors were added every 3 days. In these conditions stem cells were growing as floating neurospheres. After 4 weeks, the neurospheres were harvested, treated with a mild papain treatment in HBSS and dissociated into a single cell suspension. Cells were counted and viability was estimated by trypan blue exclusion method. Cells were differentiated by growth factors removal. The cells were plated in NSA medium at 20,000 cells/well on LabTek permanox culture slides of 8 wells precoated with laminin (1 μg/ml). Cells were treated with valproate and BDNF for 9 days at 37° C. and a saturated humidified atmosphere of 5% CO2, 1% O2 and 94% N2. Fresh medium and re-treatment with factors was performed every 3 days.\nDrug treatment. For immunofluorescence and Western analysis, cells were treated daily with either 0.5 mM of valproate (Sigma), 10 ng/ml of BDNF (R & D Systems), 20 ng/ml of NT-3 (R & D Systems), 1 nM 9cis retinoic acid (Sigma) or a dilution of NCM for 6 or 7 days. In some experiments valproate was also added with NCM and/or 9cis RA for 7 days. For human stem cell experiments, valproate (0.5 mM) or BDNF (25 ng/ml) was added for 9 days. For neurite outgrowth experiments, cells were treated for 1 day with 0.5 mM valproate or 50 ng/ml of BDNF. Where applicable, medium was changed every 2 days. After about 5–10 days, preferably on day 6 (i.e., after 6 days of drug exposure) the cells were fixed with a 4% solution of para-formaldehyde (PFA) in PBS, prepared as follows:\nImmunofluorescent staining and visualization. Cells were plated at 20,000 cells/well in poly-L-ornithine/fibronectin (1 mg/ml) coated 24-well plates. […]\nFor counting, three to five different fields of interest at magnification 10× or 20× were chosen randomly. For immunofluorescence, 3 different black and white pictures were taken by field of interest with a digital camera CoolSnap Fx (Princeton) corresponding to the exposure of Cy2, Cy3 and Hoechst fluorescence. […] The percentage of neurons, astrocytes and GABAergic cells was determined by comparing the number of cells immunopositive for β-tubulin III, GFAP and GABA to the number of bis-benzamide stained nuclei (i.e., total cell number). […]"}}, "note": "“Also recorded” adds a separate entry of the source.", "data": [{"smiles": "CCCC(CCC)C(=O)O", "note": "[valproate, 2-Propylpentanoic acid]", "values": [{"measurement": "percentage and number of neurons", "setting": "[1]", "value": "increased the percentage and number of neurons"}, {"measurement": "GAD expression", "setting": "[2]; 3 and 6 days", "value": "GAD expression was increased; also recorded: increases GAD expression after 3 and 6 days"}, {"measurement": "GAD expression", "setting": "[2]; 1 day", "value": "No expression of GAD was detectable"}, {"measurement": "effect on cell proliferation (cell density)", "setting": "[3]", "value": "without inhibiting cell proliferation"}, {"measurement": "effect on number of β tubulin III positive neurons / neuronal differentiation", "setting": "[3]", "value": "increased the number of β tubulin III positive neurons compared to control and BDNF-treated cultures; also recorded: increases neuronal differentiation in human stem cell culture"}, {"measurement": "neuronal differentiation", "setting": "[3]; 0.5 mM valproate, BDNF 25 ng/ml, untreated control 40%", "value": 70, "unit": "%"}]}]}
